Reference: ChEMBL document CHEMBL1909046, “DrugMatrix in vitro pharmacology data”

Assays:
Cytochrome P450 2A6 = molecular target: T1, Cytochrome P450 2A6 (Homo sapiens, UniProt P11509); settings: bti-tn-5b1-4; also: in other assays of this panel Not Active means under 50% inhibition at 10 µM
T1 sequence (P11509 whole entry): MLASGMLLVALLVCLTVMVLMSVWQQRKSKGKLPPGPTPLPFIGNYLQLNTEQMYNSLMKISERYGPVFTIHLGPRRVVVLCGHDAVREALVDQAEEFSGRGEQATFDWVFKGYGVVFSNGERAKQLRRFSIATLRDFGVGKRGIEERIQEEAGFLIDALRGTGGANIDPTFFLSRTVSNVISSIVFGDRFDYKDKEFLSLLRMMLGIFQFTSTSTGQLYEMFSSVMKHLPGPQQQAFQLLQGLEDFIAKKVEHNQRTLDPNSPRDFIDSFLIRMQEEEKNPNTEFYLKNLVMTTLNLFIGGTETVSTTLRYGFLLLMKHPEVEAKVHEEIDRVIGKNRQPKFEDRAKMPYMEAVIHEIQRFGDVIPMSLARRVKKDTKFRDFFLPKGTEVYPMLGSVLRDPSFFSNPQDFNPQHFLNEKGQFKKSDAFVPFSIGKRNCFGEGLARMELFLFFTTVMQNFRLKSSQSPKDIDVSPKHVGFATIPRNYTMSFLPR

[1] = molecular target: Delta-type opioid receptor (Homo sapiens, UniProt P41143); assay type: cell membranes, HEK293, Membrane; settings: hek293; also: in other assays of this panel Not Active means under 50% inhibition at 10 µM
Sequence of Delta-type opioid receptor (P41143 whole entry): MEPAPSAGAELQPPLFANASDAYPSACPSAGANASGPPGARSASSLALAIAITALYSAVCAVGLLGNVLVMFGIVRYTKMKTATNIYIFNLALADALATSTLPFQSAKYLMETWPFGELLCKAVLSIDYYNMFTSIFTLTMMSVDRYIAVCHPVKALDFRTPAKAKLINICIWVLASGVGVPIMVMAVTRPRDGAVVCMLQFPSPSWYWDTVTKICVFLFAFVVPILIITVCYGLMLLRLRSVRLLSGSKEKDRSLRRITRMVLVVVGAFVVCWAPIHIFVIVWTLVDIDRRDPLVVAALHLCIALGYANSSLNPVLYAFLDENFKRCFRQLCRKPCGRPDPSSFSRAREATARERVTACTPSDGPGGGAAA

[2] = molecular target: T2, 3-hydroxy-3-methylglutaryl-coenzyme A reductase (Homo sapiens, UniProt P04035); set-up: species or system Escherichia coli;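 also: enzyme inhibition assay of HMG-CoA reductase using radiolabeled [14C]HMG-CoA as substrate; in other assays of this panel Not Active means under 50% inhibition at 10 µM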
T2 sequence (P04035 whole entry): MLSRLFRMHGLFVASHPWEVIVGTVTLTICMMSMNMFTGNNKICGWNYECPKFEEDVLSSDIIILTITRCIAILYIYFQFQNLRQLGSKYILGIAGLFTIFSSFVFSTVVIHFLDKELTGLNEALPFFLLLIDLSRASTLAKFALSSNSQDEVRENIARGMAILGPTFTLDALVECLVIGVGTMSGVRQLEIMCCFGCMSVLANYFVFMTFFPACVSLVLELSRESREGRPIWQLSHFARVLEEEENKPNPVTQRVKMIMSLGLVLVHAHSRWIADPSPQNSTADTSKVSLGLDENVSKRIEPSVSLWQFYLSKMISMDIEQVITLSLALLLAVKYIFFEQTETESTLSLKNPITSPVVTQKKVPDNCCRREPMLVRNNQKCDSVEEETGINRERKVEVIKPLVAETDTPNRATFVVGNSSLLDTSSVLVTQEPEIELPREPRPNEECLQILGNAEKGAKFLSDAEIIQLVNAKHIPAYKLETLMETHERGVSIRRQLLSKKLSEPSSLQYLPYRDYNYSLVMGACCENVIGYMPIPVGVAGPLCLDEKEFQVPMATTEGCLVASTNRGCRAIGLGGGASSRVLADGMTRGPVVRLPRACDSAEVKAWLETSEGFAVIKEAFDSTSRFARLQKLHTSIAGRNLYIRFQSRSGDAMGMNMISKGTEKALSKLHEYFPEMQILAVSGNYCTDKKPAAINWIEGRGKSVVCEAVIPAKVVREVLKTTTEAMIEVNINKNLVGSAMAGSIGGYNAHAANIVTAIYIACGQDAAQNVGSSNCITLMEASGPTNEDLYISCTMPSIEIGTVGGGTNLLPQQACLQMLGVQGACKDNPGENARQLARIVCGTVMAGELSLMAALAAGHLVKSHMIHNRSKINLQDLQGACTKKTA

[3] = DRUGMATRIX: Interleukin IL-1 radioligand binding (ligand: [125I] interleukin 1beta); assay type: cell membranes, Membrane; settings: nih3t3; Not Active = under 50% inhibition at 10 µM
Adenosine receptor A2a = Adenosine receptor A2a (Homo sapiens, UniProt P29274); experiment: DRUGMATRIX: Adenosine A2A radioligand binding (ligand: […]); assay type: cell membranes, HEK293, Membrane; settings: hek293; Not Active = under 50% inhibition at 10 µM
Sequence of Adenosine receptor A2a (P29274 whole entry): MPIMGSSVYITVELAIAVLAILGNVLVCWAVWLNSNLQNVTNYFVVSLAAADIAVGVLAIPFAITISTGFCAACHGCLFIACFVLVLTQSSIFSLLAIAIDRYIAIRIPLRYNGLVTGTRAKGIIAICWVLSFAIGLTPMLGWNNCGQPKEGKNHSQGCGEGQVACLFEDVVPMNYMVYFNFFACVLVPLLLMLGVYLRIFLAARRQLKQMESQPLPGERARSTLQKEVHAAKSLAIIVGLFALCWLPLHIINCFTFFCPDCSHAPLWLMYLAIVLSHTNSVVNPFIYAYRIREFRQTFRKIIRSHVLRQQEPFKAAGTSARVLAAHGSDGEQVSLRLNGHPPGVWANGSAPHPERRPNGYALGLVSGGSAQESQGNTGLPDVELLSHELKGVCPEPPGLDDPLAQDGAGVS

[4] = DRUGMATRIX: GABAA, Chloride Channel, TBOB radioligand binding (ligand: [3H] TBOB); assay type: cell membranes, Rattus norvegicus, Wistar, Cerebral cortex, Membrane; settings: Not Active = under 50% inhibition at 10 µM
[5] = molecular target: Vascular endothelial growth factor receptor 1 (Homo sapiens, UniProt P17948); assay type: cell-based; settings: huvec; also: in other assays of this panel Not Active means under 50% inhibition at 10 µM
Sequence of Vascular endothelial growth factor receptor 1 (P17948 whole entry): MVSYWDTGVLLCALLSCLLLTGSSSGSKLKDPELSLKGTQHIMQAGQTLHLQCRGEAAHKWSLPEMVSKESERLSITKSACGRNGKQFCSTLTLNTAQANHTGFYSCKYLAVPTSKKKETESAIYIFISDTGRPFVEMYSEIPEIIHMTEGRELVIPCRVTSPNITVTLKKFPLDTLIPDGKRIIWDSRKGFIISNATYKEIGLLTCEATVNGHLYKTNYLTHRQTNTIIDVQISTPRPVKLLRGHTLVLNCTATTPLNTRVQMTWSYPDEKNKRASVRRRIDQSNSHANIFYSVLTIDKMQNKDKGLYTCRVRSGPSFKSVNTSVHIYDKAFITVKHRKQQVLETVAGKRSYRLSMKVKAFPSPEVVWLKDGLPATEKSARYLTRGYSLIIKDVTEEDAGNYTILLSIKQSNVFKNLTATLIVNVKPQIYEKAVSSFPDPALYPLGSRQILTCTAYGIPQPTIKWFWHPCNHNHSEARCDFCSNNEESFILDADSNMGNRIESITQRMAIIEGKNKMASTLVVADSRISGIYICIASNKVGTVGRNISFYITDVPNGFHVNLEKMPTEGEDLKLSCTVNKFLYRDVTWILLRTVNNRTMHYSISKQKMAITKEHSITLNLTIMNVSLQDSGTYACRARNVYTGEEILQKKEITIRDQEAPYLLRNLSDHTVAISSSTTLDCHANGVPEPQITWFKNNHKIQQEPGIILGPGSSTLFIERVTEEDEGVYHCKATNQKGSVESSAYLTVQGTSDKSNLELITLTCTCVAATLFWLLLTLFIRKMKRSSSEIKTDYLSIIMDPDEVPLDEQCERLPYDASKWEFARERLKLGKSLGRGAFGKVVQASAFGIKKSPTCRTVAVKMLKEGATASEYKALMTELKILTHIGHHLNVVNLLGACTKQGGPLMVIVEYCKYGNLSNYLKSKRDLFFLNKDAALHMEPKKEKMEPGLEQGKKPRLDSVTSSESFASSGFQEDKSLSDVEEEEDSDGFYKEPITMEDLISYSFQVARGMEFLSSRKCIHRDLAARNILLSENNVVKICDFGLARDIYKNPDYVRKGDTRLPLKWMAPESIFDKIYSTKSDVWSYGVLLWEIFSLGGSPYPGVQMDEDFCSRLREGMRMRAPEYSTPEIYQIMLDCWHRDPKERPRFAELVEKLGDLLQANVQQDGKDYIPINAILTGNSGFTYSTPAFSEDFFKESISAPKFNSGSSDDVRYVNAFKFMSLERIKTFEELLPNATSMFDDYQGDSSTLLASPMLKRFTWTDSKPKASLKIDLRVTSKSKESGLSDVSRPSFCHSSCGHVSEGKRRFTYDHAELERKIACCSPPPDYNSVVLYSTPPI

[6] = molecular target: T3, Neuropeptide Y receptor type 2 (Homo sapiens, UniProt P49146); assay type: cell membranes, Membrane; settings: kan-ts; also: in other assays of this panel Not Active means under 50% inhibition at 10 µM
T3 sequence (P49146 whole entry): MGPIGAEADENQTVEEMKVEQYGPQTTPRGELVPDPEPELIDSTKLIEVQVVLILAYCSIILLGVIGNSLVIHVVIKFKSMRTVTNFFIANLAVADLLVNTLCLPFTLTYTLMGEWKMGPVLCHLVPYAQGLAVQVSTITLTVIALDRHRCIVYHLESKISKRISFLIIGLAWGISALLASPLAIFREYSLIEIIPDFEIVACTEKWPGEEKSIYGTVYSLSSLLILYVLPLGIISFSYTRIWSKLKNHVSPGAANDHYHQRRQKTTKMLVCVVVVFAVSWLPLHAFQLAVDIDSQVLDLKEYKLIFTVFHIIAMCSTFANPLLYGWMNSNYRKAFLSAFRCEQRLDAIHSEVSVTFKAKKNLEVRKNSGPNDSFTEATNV

D(3) dopamine receptor = D(3) dopamine receptor (Homo sapiens, UniProt P35462); experiment: DRUGMATRIX: Dopamine D3 radioligand binding (ligand: [3H] Spiperone); assay type: cell membranes, CHO, Membrane; settings: cho
Sequence of D(3) dopamine receptor (P35462 whole entry): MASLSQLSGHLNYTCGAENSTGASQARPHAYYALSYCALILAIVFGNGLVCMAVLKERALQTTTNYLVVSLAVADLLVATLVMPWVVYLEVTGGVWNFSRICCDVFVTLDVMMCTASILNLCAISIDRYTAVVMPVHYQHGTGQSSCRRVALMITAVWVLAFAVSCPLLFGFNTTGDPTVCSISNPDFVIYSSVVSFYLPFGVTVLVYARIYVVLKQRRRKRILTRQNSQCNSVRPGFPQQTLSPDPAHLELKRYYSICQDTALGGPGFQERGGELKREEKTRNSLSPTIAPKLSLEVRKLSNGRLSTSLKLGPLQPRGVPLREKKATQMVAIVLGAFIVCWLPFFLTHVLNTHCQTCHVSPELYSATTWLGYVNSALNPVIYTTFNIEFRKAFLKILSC

Melanocortin receptor 5 = Melanocortin receptor 5 (Homo sapiens, UniProt P33032); assay type: cell membranes, HEK293, Membrane; settings: hek293; also: in other assays of this panel Not Active means under 50% inhibition at 10 µM
Sequence of Melanocortin receptor 5 (P33032 whole entry): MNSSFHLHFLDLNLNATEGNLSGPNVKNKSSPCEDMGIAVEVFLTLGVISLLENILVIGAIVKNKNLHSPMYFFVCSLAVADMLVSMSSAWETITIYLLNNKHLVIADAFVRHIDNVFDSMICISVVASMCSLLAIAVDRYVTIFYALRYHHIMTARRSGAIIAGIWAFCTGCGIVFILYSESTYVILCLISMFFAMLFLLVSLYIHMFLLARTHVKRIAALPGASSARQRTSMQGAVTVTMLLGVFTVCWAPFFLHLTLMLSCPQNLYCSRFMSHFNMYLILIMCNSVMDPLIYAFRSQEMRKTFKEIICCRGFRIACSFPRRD

[7] = molecular target: T4, 5-hydroxytryptamine receptor 2C (Homo sapiens, UniProt P28335); experiment: DRUGMATRIX: Serotonin (5-Hydroxytryptamine) 5-HT2C radioligand binding (ligand: [3H] Mesulergine); assay type: cell membranes, CHO-K1, Membrane; settings: cho-k1; Not Active = under 50% inhibition at 10 µM
T4 sequence (P28335 whole entry): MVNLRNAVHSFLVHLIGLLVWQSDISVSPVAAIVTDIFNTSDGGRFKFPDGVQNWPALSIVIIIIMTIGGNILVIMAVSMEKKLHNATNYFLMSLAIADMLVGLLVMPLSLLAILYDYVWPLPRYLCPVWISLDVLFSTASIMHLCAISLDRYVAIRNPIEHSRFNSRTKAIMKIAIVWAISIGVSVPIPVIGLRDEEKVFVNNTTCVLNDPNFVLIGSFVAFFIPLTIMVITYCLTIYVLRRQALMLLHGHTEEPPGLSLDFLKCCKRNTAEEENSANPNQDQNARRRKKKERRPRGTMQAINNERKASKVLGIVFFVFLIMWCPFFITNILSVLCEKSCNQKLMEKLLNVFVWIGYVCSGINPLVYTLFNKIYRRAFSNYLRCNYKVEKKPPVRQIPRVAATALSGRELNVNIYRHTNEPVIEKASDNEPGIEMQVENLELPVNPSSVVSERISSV

Acetylcholinesterase = Acetylcholinesterase (Homo sapiens, UniProt P22303); experiment: DRUGMATRIX: Acetylcholinesterase enzyme inhibition (substrate: acetylthiocholine); assay type: cell-based, HEK293; settings: hek293; Not Active = under 50% inhibition at 10 µM
Sequence of Acetylcholinesterase (P22303 whole entry): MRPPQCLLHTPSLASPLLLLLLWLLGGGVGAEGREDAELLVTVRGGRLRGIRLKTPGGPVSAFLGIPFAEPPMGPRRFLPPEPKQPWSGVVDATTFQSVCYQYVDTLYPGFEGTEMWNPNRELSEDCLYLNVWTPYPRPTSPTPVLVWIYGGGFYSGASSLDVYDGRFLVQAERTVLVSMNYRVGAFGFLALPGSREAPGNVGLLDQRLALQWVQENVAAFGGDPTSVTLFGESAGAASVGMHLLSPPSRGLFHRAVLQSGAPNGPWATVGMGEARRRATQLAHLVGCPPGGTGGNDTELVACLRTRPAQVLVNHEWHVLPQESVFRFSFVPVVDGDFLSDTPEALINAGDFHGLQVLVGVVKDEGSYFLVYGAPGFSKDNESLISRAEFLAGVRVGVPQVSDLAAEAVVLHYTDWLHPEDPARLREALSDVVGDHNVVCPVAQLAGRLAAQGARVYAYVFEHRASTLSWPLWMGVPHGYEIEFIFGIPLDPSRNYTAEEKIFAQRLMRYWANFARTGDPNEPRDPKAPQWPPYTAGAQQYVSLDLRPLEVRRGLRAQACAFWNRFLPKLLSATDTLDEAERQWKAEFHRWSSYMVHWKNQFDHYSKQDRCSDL

Nc1nnc(-c2cccc(Cl)c2Cl)c(N)n1 [LAMOTRIGINE]
Not Active: IC50 (Cytochrome P450 2A6) | Ki (Cytochrome P450 2A6) | IC50 [1] | IC50 [2] | IC50 [3] | Ki [3] | IC50 (Adenosine receptor A2a) | IC50 [4] | Ki [4] | IC50 [5] | IC50 [6] | IC50 (D(3) dopamine receptor) | IC50 (Melanocortin receptor 5) | IC50 [7] | IC50 (Acetylcholinesterase)

CC(C)(C)NCC(O)c1cc(O)cc(O)c1 (centres undefined) [TERBUTALINE]
Not Active: IC50 (Cytochrome P450 2A6) | Ki (Cytochrome P450 2A6) | IC50 [1] | IC50 [2] | IC50 [3] | Ki [3] | IC50 (Adenosine receptor A2a) | IC50 [4] | Ki [4] | IC50 [5] | IC50 [6] | IC50 (D(3) dopamine receptor) | IC50 (Melanocortin receptor 5) | IC50 [7] | IC50 (Acetylcholinesterase)

O=[N+]([O-])c1cc([As](=O)(O)O)ccc1O [ROXARSONE]
Not Active: IC50 (Cytochrome P450 2A6) | Ki (Cytochrome P450 2A6) | IC50 [1] | Ki [1] | IC50 [2] | Ki [2] | IC50 [3] | Ki [3] | IC50 (Adenosine receptor A2a) | Ki (Adenosine receptor A2a) | IC50 [4] | Ki [4] | IC50 [5] | Ki [5] | IC50 [6] | Ki [6] | IC50 (D(3) dopamine receptor) | Ki (D(3) dopamine receptor) | IC50 (Melanocortin receptor 5) | Ki (Melanocortin receptor 5) | IC50 [7] | Ki [7] | IC50 (Acetylcholinesterase) | Ki (Acetylcholinesterase)

CC(C)(C)NC(=O)[C@@H]1CN(Cc2cccnc2)CCN1C[C@@H](O)C[C@@H](Cc1ccccc1)C(=O)N[C@H]1c2ccccc2C[C@H]1O.O
Not Active: IC50 (Cytochrome P450 2A6) | Ki (Cytochrome P450 2A6) | IC50 [1] | IC50 [2] | IC50 [3] | Ki [3] | IC50 (Adenosine receptor A2a) | IC50 [4] | Ki [4] | IC50 [5] | IC50 [6] | IC50 (D(3) dopamine receptor) | IC50 (Melanocortin receptor 5) | IC50 [7] | IC50 (Acetylcholinesterase)

Nc1ccc(S(N)(=O)=O)cc1 [SULFANILAMIDE]
Not Active: IC50 (Cytochrome P450 2A6) | Ki (Cytochrome P450 2A6) | IC50 [1] | IC50 [2] | IC50 [3] | Ki [3] | IC50 (Adenosine receptor A2a) | IC50 [4] | Ki [4] | IC50 [5] | IC50 [6] | IC50 (D(3) dopamine receptor) | IC50 (Melanocortin receptor 5) | IC50 [7] | IC50 (Acetylcholinesterase)

Cc1ncc([N+](=O)[O-])n1CC(C)O (centres undefined) [SECNIDAZOLE]
Not Active: IC50 (Cytochrome P450 2A6) | Ki (Cytochrome P450 2A6) | IC50 [1] | IC50 [2] | IC50 [3] | Ki [3] | IC50 (Adenosine receptor A2a) | IC50 [4] | Ki [4] | IC50 [5] | IC50 [6] | IC50 (D(3) dopamine receptor) | IC50 (Melanocortin receptor 5) | IC50 [7] | IC50 (Acetylcholinesterase)
